Patent US20180369244A1, “BTK Inhibitors to Treat Solid Tumors Through Modulation of the Tumor Microenvironment” (Acerta Pharma B.V., priority 2014, published 2018)

Tests used:
[1] = target: CYP3A4 (Homo sapiens, UniProt P08684); assay: Loss of parent drug as catalyzed by CYPs; assay type: in vitro ADME
Source text: (§1) No unique human metabolite was identified. Preliminary evaluations of metabolism in the plasma, bile, and urine of rats, dogs, and monkeys indicated metabolic processes of oxidation, glutathione binding, and hydrolysis.

[2] = tested on: NSCLC (KrasLA2); assay: KrasLA2 genetic NSCLC model; assay type: in vivo, mice
Source text: The model is designed to have sporadic expression in single cells of G12D mutant Kras off its own promoter triggered by spontaneous intrachromosomal recombination. Johnson, et al. Nature 2001, 410, 1111-16. While the mutant Kras protein is expressed in a few cells in all tissues, tumor development is seen only in the lung at high penetrance.

[3] = tested on: human platelet-mediated thrombosis; settings: mouse, in vivo
Method: Injury to the vessel wall of arterioles ([…] diameter) was performed using a pulsed nitrogen dye laser (440 nm, Photonic Instruments) applied through a 20× water-immersion Olympus objective (LUMPlanF1, 0.5 numerical aperature (NA)) of a Zeiss Axiotech vario microscope. […] The extent of thrombus formation was assessed for 2 minutes after injury and the area (μm^2) of coverage determined (Image IQ, Andor Technology).
The BTK inhibitor-treated human platelets were fluorescently labeled and infused continuously through a catheter inserted into the femoral artery.

[4] = Cardiovascular function study in telemeterized beagle dogs; assay type: in vivo; settings: single doses through 30 mg/kg
Source text: (§2) Formula (II) was well tolerated in standard in vivo Good Laboratory Practices (GLP) studies of pharmacologic safety.

[5] = GLP safety pharmacology in rats (functional observation battery, respiratory function); assay type: in vivo; settings: doses through 300 mg/kg
Source text: as §2

[6] = tested on: KPC derived mouse pancreatic cancer cells; assay: KPC derived pancreatic cancer cells injected into pancreas, Formula (II) and/or gemcitabine; assay type: in vivo; settings: Formula (II) 15 mg/kg/BID oral; gemcitabine 15 mg/kg IV every 4 days for 3 injections
Method: In this study, KPC derived mouse pancreatic cancer cells (KrasGl2D;Trp53R^172H;Pdx1-Cre) were injected into the pancreases.
Single cell suspensions from tumor samples. Mouse tumor tissue was collected and stored in PBS/0.1% soybean trypsin inhibitor prior to enzymatic dissociation. Samples were finely minced with a scissors and mouse tissue was transferred into DMEM containing 1.0 mg/ml collagenase IV (Gibco), 0.1% soybean trypsin inhibitor, and 50 U/ml DNase (Roche) and incubated at 37 C for 30 min. with constant stirring while human tissue was digested in 2.0 mg/ml collagenase IV, 1.0 mg/ml hyluronidase, 0.1% soybean trypsin inhibitor, and 50 U/ml DNase for 45 minutes. Suspensions were filtered through a 100 micron filter and washed with FACS buffer (PBS/0.5% BSA/2.0 mM EDTA) prior to staining. Two million total cells were stained with antibodies as indicated. Intracellular detection of FoxP3 was achieved following permeabilization with BD Perm Buffer III (BD Biosciences) and eBioscience Fix/Perm respectively. Following surface staining, samples were acquired on a BD Fortessa and analyzed using FlowJo (Treestar) software.

[7] = In vitro metabolism in hepatocytes with 14C-labeled Formula (II); assay type: in vitro ADME, mouse, rat, dog, rabbit, monkey, and human
Source text: as §1

[8] = tested on: NK cells; assay: Antibody-dependent NK cell IFN-γ secretion (ELISA); assay type: cell-based, human; settings: 1 μM
Method: The HER18 cells were maintained in DEM supplemented with fetal bovine serum, penicillin-streptomycin and. Prior to assay, HER18 cells were harvested using trypsin-EDTA, washed with phosphate-buffered saline (PBS) containing 5% serum and viable cells were counted. […] NK cells from CLL patients and healthy volunteers were enriched from peripheral blood collected in sodium citrate anti-coagulant tubes and then subject to density centrifugation. Removal of non NK cells was performed using negative selection by MACS separation. Freshly isolated NK cells were washed three times, enumerated, and then used immediately for ADCC assays.
Cytokine secretion was determined as follows. Rituximab and trastuzumab-dependent NK-cell mediated degranulation and cytokine release were assessed using lymphoma and HER2+ breast cancer cell lines (DHL-4 and HER18, respectively). […] NK cells from healthy donors were enriched as described above and then added to the target cells and incubated for 4 hours at 37° C. Triplicate cultures were performed on NK cells from donors. After incubation, supernatants were harvested, centrifuged briefly, and then analyzed for interferon-γ using an enzyme-linked immunosorbent assay (ELISA).

[9] = target: T1, BTK (Mus musculus, UniProt P35991); assay: Molecular probe assay, BTK occupancy in MDSCs of tumor bearing PDA mice; assay type: in vivo; settings: 15 mg/kg BID, Day 8, 4 hours post dose
T1 construct: endogenous in cells; host or cells: granulocytic and monocytic MDSCs from tumor-bearing PDA mice
Source text: A molecular probe assay was used to calculate the percent irreversible occupancy of total BTK.

[10] = tested on: ID8 ovarian cancer; assay: ID8 syngeneic orthotropic ovarian cancer murine model; assay type: in vivo, mice; settings: 15 mg/kg/BID oral
Source text: Human ovarian cancer models, including the ID8 syngeneic orthotropic ovarian cancer model and other animal models, are described in Fong and Kakar, J. Ovarian Res. 2009, 2, 12; Greenaway, et al., Gynecol. Oncol. 2008, 108, 385-94; Urzua et al., Tumour Biol. 2005, 26, 236-44; Janat-Amsbury, et al., Anticancer Res. 2006, 26, 3223-28; Janat-Amsbury, et al., Anticancer Res. 2006, 26, 2785-89. […] The results of the study are shown in FIG. 5, FIG. 6, FIG. 7, FIG. 8, FIG. 9, FIG. 10, FIG. 11, and FIG. 12.

[11] = tested on: primary CLL cells; assay: Rituximab ADCC chromium release assay; assay type: cell-based, human; settings: 1 μM; primary CLL samples
Method: Cell culture conditions were as follows. Cell lines Raji and DHL-4 were maintained in […] supplemented with fetal bovine serum, L-glutamine, 2-mercaptoethanol and penicillin-streptomycin at 37° C. in a humidified incubator. The HER18 cells were maintained in DEM supplemented with fetal bovine serum, penicillin-streptomycin and. Prior to assay, HER18 cells were harvested using trypsin-EDTA, washed with phosphate-buffered saline (PBS) containing 5% serum and viable cells were counted. For culture of primary target cells, peripheral blood from CLL patients was subject to density centrifugation to obtain peripheral blood mononuclear cells (PBMC). Cell preparations were washed and then subject to positive selection of CD5+CD19^+ CLL cells using magnetic beads (MACS, Miltenyi Biotech). Cell preparations were used fresh after selection. NK cells from CLL patients and healthy volunteers were enriched from peripheral blood collected in sodium citrate anti-coagulant tubes and then subject to density centrifugation. Removal of non NK cells was performed using negative selection by MACS separation. […]
ADCC assays were performed as follows. […] The effect of NK cell natural cytotoxicity was assessed in wells containing no rituximab. […] Supernatants were harvested and ^51Cr release was measured by liquid scintillation counting. […]

[12] = Glutathione binding and depletion in vitro; assay type: in vitro ADME
Source text: as §1

T1 sequence (P35991 whole entry): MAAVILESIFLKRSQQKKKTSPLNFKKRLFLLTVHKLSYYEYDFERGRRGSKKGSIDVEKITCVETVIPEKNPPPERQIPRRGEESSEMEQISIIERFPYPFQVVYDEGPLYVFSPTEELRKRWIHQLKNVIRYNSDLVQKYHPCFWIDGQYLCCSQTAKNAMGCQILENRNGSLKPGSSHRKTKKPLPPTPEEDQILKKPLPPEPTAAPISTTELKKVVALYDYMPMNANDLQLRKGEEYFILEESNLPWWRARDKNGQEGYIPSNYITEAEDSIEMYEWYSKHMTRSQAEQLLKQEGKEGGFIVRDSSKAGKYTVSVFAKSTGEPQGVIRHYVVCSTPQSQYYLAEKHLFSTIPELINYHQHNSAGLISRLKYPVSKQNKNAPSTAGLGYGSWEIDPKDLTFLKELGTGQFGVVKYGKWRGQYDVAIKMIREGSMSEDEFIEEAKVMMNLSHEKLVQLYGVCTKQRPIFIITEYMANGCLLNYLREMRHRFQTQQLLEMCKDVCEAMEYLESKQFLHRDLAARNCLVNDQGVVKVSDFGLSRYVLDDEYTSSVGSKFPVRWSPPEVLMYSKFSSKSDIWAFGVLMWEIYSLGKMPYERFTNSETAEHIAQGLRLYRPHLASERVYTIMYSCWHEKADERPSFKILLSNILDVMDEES
Chain of CYP3A4 (P08684 whole entry): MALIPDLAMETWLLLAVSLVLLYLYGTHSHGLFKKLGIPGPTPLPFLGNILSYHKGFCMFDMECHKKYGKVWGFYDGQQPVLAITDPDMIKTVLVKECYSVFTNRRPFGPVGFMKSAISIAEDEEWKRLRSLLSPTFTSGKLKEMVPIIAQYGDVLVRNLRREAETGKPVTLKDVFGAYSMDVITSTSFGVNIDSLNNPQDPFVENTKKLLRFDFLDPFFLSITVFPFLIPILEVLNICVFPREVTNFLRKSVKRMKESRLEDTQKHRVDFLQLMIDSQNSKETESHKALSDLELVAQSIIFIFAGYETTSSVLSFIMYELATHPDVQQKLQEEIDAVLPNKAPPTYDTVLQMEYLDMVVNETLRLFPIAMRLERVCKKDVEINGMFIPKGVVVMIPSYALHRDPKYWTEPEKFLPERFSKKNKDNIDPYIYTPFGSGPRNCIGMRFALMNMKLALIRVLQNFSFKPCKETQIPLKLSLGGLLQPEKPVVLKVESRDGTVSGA

## CC#CC(=O)N1CCC[C@H]1c1nc(-c2ccc(C(=O)Nc3ccccn3)cc2)c2c(N)nccn12 [Formula (II), (S)-4-(8-amino-3-(1-(but-2-ynoyl)pyrrolidin-2-yl)imidazo[1,5-a]pyrazin-1-yl)-N-(pyridin-2-yl)benzamide]
[1]
  CYP metabolism: metabolized by CYP3A4
[2]; 15 mg/kg
  number of tumors: fewer overall tumors
  tumor volumes versus vehicle: significant decrease in tumor volumes
[2]; FIG. 62
  immunosuppressive tumor associated TAMs: significant reduction
[2]; FIG. 63
  immunosuppressive tumor associated MDSCs: significant reduction
[2]; FIG. 64
  immunosuppressive tumor associated Tregs: significant reduction
[3]
  effect on thrombus formation: does not interfere with thrombus formation
[4]
  body temperature, cardiovascular, ECG (including QT interval) parameters: no meaningful changes
[5]
  functional observation battery: neurobehavioral effects, body temperature: no adverse effects
  respiratory function: no treatment-related adverse effects
[6]
  reduction in tumor size: show efficacy alone
[7]
  metabolites in hepatocytes: two mono-oxidized metabolites and a glutathione conjugate
[8]
  IFN-γ or NK cell degranulation: did not inhibit
[8]; HER18 target cells
  inhibition of trastuzumab-stimulated NK cell cytokine release: no inhibitory effect
[9]
  irreversible BTK occupancy in granulocytic and monocytic MDSC: Complete BTK occupancy
[10]
  ID8 ovarian cancer growth: impairs ID8 ovarian cancer growth
  immunosuppressive B cells in tumor-bearing mice: significant reduction in immunosuppressive B cells
  tumor associated Tregs and CD8+ T cells: significant reduction in immunosuppressive tumor associated Tregs and an increase in CD8^+ T cells
[11]
  ex vivo NK cell activity against autologous tumor cells: not inhibited
[12]
  glutathione binding and depletion: binds to glutathione but does not deplete glutathione
